Data: patent US20210283107A1, “Methods to Expand the Spectrum of Gram-Positive Antibiotics” (NORTH CAROLINA STATE UNIVERSITY, priority 2016, published 2021)
Converted amounts (≈) assume the structure as drawn. “And” between values parts separate entries of the source, which are not always exact repeats. Equal entries are not always repeated.

Columns and labels:
[1] = test system: A. baumannii strain 5075 (AB5075); experiment: Broth microdilution MIC determination of compound alone; format: cell-based; settings: Acinetobacter baumannii
Method in brief: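 MIC by twofold serial dilution in cation-adjusted Mueller-Hinton broth, inoculum 5×10^5 CFU/mL from 6 h day cultures, top concentration 200 μM (64 μg/mL). Incubated stationary at 37° C. for 16 hours; MIC taken as lowest concentration with no visible growth.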

[2] = test system: A. baumannii mutant AB522; experiment: MIC against Tn-seq transposon mutant AB522; format: cell-based; settings: Acinetobacter baumannii
Protocol: (§1) During individual MIC screening, two mutants, AB522 and AB1310, were identified due to their increased sensitivity to the three macrolide antibiotics and vancomycin when compared to AB 5075 (Table 17).
(§2) Day Cultures (6 h) were subcultured to 5×10^5 CFU/mL in cation adjusted Mueller-Hinton broth (CAMHB). Aliquots (1 mL) were placed in culture tubes, and compound was added from 100 mM stock solutions, such that the compound concentration equaled the highest concentration tested (200 μM or 64 μg/mL). Samples were then aliquoted (200 μL) into the first row of wells of a 96-well plate, with all remaining wells being filled with 100 μL of initial bacterial subculture. The wells in row one were mixed five times before 100 μL was transferred to the following row (row two). Row two was then mixed five times, and 100 μL was transferred to row three. This processed was repeated until the final row had been mixed. This process provided a serial dilution of the compound. Plates were covered with Glad Press n'Seal and were incubated under stationary conditions at 37° C. for 16 hours. MIC values were recorded as the lowest concentration at which no bacterial growth was observed.

[3] = test system: A. baumannii mutant AB1310; experiment: MIC against Tn-seq transposon mutant AB1310; format: cell-based; settings: Acinetobacter baumannii
Protocol: as §1, §2

[4] = test system: A. baumannii strain 5075 (AB5075); experiment: Macrolide sensitization / antibiotic resensitization: antibiotic MIC in presence of compound (broth microdilution); format: cell-based, Acinetobacter baumannii; settings: for MIC: Acinetobacter baumannii; for potentiation of vancomycin: compound at 10 μM; for reduction in vancomycin MIC (fold): compound at 20 μM; for Josamycin MIC / Oleandomycin MIC / Spiramycin MIC / Troleandomycin MIC: in presence of compound (concentration not given in Table 7); for Amikacin MIC / Gentamicin MIC / Kanamycin MIC / Neomycin MIC / Streptomycin MIC / Tobramycin MIC: in presence of compound (concentration not given in Table 12); for Fold reduction of josamycin MIC: in the presence of compound (concentration not given)
Method in brief: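 A. baumannii AB5075 at 5×10^5 CFU/mL in CAMHB held a fixed compound level while antibiotic was serially diluted. After 16-18 h static at 37° C, MIC was the lowest antibiotic concentration without visible growth. Fold-reduction is relative to antibiotic alone, from duplicates repeated at least twice.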

AB 5075 = experiment: Backlight assay for membrane permeability; format: cell-based, Acinetobacter baumannii; settings: AB5075
Protocol: The assay was initially performed at 10, 20 and 30 μM with compounds 1 and 4 (Table 16). […] When the concentration is lowered to 20 μM, the percent of membrane disrupted also decreases to 78% and 83% respectively. When further decreasing the concentration to 10 μM, the membrane disruption decreases to 39 and 44% respectively. Due to the similar structure and lack of potentiation activity, compound 25 was screened at 10, 20 and 30 μM to compare membrane permeability with that of active compounds. The percent disruption was less than seen with compounds 1 and 4 being 53, 54 and 60% respectively.

[5] = compound at 10 μM vs colistin alone, AB5075
[6] = compound at 30 μM vs antibiotic alone, AB5075
[7] = in presence of compound at 4 μM, AB5075
[8] = in presence of compound at 5 μM, AB5075
[9] = in presence of compound at 10 μM, AB5075
[10] = in presence of compound at 15 μM, AB5075
[11] = in presence of compound at 20 μM, AB5075
[12] = in presence of compound at 30 μM, AB5075

| Compound | MIC [2] | MIC [3] | Fold Increase (colistin MIC) [4, 5] | potentiation of vancomycin ([4]; AB5075) | reduction in vancomycin MIC (fold) ([4]; AB5075) | Fold Reduction (daptomycin MIC) [4, 6] | Fold Reduction (vancomycin MIC) [4, 6] | Josamycin MIC ([4]; AB5075) | Oleandomycin MIC ([4]; AB5075) | Spiramycin MIC ([4]; AB5075) | Troleandomycin MIC ([4]; AB5075) | Amikacin MIC ([4]; AB5075) | Gentamicin MIC ([4]; AB5075) | Kanamycin MIC ([4]; AB5075) | Neomycin MIC ([4]; AB5075) | Streptomycin MIC ([4]; AB5075) | Tobramycin MIC ([4]; AB5075) | Azithromycin MIC [4, 7] | Vancomycin MIC [4, 7] | Azithromycin MIC [4, 8] | further results |
| --- | --- | --- | --- | --- | --- | --- | --- | --- | --- | --- | --- | --- | --- | --- | --- | --- | --- | --- | --- | --- | --- |
| Nc1nc(-c2ccc(NC(=O)c3cc(Cl)cc(Cl)c3)cc2)c[nH]1 [Compound 1] | 12.5 µM (≈ 4.34 µg/mL) | 12.5 µM (≈ 4.34 µg/mL) | 8 fold | no potentiation activity observed | 32 fold | 128 fold | 256 fold | 8 µg/mL | 64 µg/mL | 128 µg/mL | 32 µg/mL | 128 µg/mL | >512 µg/mL | >512 µg/mL | 16 µg/mL | 256 µg/mL | 64 µg/mL | 32 µg/mL | 256 µg/mL | 32 µg/mL | MIC [1]: 100 µM (≈ 34.7 µg/mL); MIC ([4]; read-out: Daptomycm MIC (μg/mL)): 16 µg/mL; Fold Increase (colistin MIC) ([4]; compound at 30 μM vs colistin alone, AB5075): 32 fold; Vancomycin MIC [4, 8]: 256 µg/mL; Azithromycin MIC [4, 9]: 16 µg/mL; Vancomycin MIC [4, 9]: 256 µg/mL; Azithromycin MIC [4, 10]: 16 µg/mL; Vancomycin MIC [4, 10]: 64 µg/mL; Azithromycin MIC [4, 11]: 16 µg/mL; Vancomycin MIC [4, 11]: 8 µg/mL; Azithromycin MIC [4, 12]: 8 µg/mL; Colistin MIC [4, 12]: 16 µg/mL; Linezolid MIC [4, 12]: 128 µg/mL; Vancomycin MIC [4, 12]: 1 µg/mL; Fold reduction of josamycin MIC ([4]; AB5075): 16 fold; Disrupted bacterial membrane (%) (AB 5075; compound at 10 μM): 39% and 38.8%; Disrupted bacterial membrane (%) (AB 5075; compound at 20 μM): 78% |
| Nc1nc(-c2ccc(NC(=O)c3cc(Br)cc(Br)c3)cc2)c[nH]1 [Compound 4] | 12.5 µM (≈ 5.45 µg/mL) | 12.5 µM (≈ 5.45 µg/mL) | 0 fold | no potentiation activity observed | 64 fold | 32 fold | 256 fold | 4 µg/mL | 128 µg/mL | 64 µg/mL | 16 µg/mL | 128 µg/mL | >512 µg/mL | >512 µg/mL | 64 µg/mL | 512 µg/mL | 64 µg/mL | 64 µg/mL | 128 µg/mL | 64 µg/mL | MIC ([1]; compound alone, AB5075, read-out: MIC): 100 µM (≈ 43.6 µg/mL); MIC ([4]; in presence of compound at 30 μM, AB5075, read-out: Daptomycm MIC): 64 µg/mL; Fold reduction (clarithromycin MIC) [4, 6]: 128 fold; Vancomycin MIC [4, 8]: 256 µg/mL; Azithromycin MIC [4, 9]: 32 µg/mL; Colistin MIC [4, 9]: 0.5 µg/mL; Vancomycin MIC [4, 9]: 128 µg/mL; Azithromycin MIC [4, 10]: 8 µg/mL; Vancomycin MIC [4, 10]: 32 µg/mL; Azithromycin MIC [4, 11]: 16 µg/mL; Vancomycin MIC [4, 11]: 4 µg/mL; Azithromycin MIC [4, 12]: 8 µg/mL; Colistin MIC [4, 12]: 4 µg/mL; Linezolid MIC [4, 12]: 256 µg/mL; Vancomycin MIC [4, 12]: 1 µg/mL; Fold reduction of josamycin MIC ([4]; AB5075): 32 fold; Disrupted bacterial membrane (%) (AB 5075; compound at 10 μM): 44%; Disrupted bacterial membrane (%) (AB 5075; compound at 20 μM): 83% and 83.2%; Disrupted bacterial membrane (%) (AB 5075; compound at 30 μM): 87.4% |
